According to EP4385326A1, “BIOPESTICIDE COMPOSITION AND METHOD FOR CONTROLLING AND TREATING BROAD SPECTRUM OF PESTS AND DISEASES IN PLANTS” (Kimitec Biogorup, priority 2022, dated 2024):
Marks after values point to notes of the source that are not given here.

Legend:
[1] = tested on: Myzus persicae; assay: Contact mortality (Leaf Disc Method); format: in vivo; settings: Table 4, application dose 3 cc/l (0.3%), Abbott's corrected
[2] = tested on: Bemisia tabaci; assay: Contact mortality (Leaf Disc Method); format: in vivo; settings: Table 4, application dose 3 cc/l (0.3%), Abbott's corrected
[3] = tested on: Spodoptera littoralis; assay: Contact mortality (Leaf Disc Method); settings: Table 3; application dose 3 cc/l (0.3%); Abbott's corrected; 24 h
Method: Which is compared to individual solvent, using different solvents in order to extract active principles from vegetable matrix in the step b) claimed process and a third option that is evaporated the resulting solvent in the extraction process. Vegetable matrix is Carum carvi seed. Three kinds of treatments previously mentioned are: • Treatment A: Individual solvent • Treatment B: Plant extract without solvent. The solvent was removed by vacuum concentration and the composition was prepared using the crude extract in an aqueous solution in 2% Tween^Tm24. • Treatment C: Plant extract with different solvents.
The biopesticidal activity of the different treatments is tested in vitro against two lepidopteran pests: polyphagous Spodoptera littoralis and olyphagous Tuta absoluta. Aside from benzyl alcohol, solvents frequently used to formulate chemical products such as ethanol, isopropanol and water are used in the treatments. Table 3. In vitro trials against chewing lepidopteran pests
The objective of this bioassay is to evaluate the effect of test items on the mortality of adult insects and mites in a short/medium-term (0-24 hours) by topical application. Tests were conducted in plastic net bottles. A total of 10 replicates for each treatment (tests items and negative control) were used in each experiment and temporarily replicated 3 times along the week. (Figure 4)
Numbers of live and dead adult insects and mites were counted at 24 h post-treatment. Adult insects and mites were considered dead if no movement was apparent after probing with the tip of a fine brush under stereoscopic magnifying glass. Mortality percentage was calculated in treatment and control groups. If the mortality in negative control is above 20% the test was discarded.
Means of %M were compared using a one-way analysis of variance (ANOVA, p<0.05) and LSD-test as a post hoc test to verify significant differences between single treatments using Statgraphics Centurion XVII software. When nonnormality in the data was detected, an additional Kruskal-Wallis test was conducted, and Box-and-Whisker Plot (Median Notch) was presented. • Antifeedant effects

[4] = tested on: Frankliniella occidentalis; assay: Contact mortality (Leaf Disc Method); format: in vivo; settings: Table 4, application dose 3 cc/l (0.3%), Abbott's corrected
[5] = tested on: Tuta absoluta; assay: Contact mortality (Leaf Disc Method); settings: Table 3; application dose 3 cc/l (0.3%); Abbott's corrected; 24 h
[6] = tested on: Tetranychus urticae; assay: Contact mortality (Leaf Disc Method); format: in vivo; settings: Table 5, application dose 3 cc/l (0.3%), Abbott's corrected
[7] = general property stated in the summary; cited from earlier work

Row | Compound | Contact mortality (%M) Myzus persicae (adults) [1] | Contact mortality (%M) Bemisia tabaci (adults) [2] | Contact mortality (%M) Spodoptera littoralis [3] | Contact mortality (%M) Frankliniella occidentalis (immature) [4] | Contact mortality (%M) Tuta absoluta [5] | Contact mortality (%M) Tetranychus urticae (adults) [6] | Contact mortality (%M) Myzus persicae (adults) ([1]; 1440 min) | Contact mortality (%M) Bemisia tabaci (adults) ([2]; 1440 min) | Contact mortality (%M) Frankliniella occidentalis (immature) ([4]; 1440 min) | Contact mortality (%M) Tetranychus urticae (adults) ([6]; 1440 min) | solubility in water [7] [g/100 mL]
1 | CC(C)O [Isopropanol (IPN), Isopropanol] | 0.0 ± 0.0 ^e % | 0.0 ± 0.0 ^e % | 4.2 ± 6.1 ^f % | 0.0 ± 0.0 ^e % | 11.4 ± 7.2 ^e % | 0.0 ± 0.0 ^e % |  |  |  |  | 
2 | O [Water] |  |  | 0.0 ± 0.0 ^f % |  | 0.0 ± 0.0 ^e % |  | 0.0 ± 0.0 ^e % | 0.0 ± 0.0 ^e % | 0.0 ± 0.0 ^e % | 0.0 ± 0.0 ^e % | 
3 | CCO [Ethanol (EtOH), Ethanol] | 16.7 ± 9.1 ^d % | 23.5 ± 8.4 ^d % | 0.0 ± 0.0 ^f % | 0.0 ± 0.0 ^e % | 0.0 ± 0.0 ^e % | 0.0 ± 0.0 ^e % |  |  |  |  | 
4 | OCc1ccccc1 [Benzyl alcohol (BnOH), Benzyl alcohol] | 19.8 ± 6.2 ^d % | 49.8 ± 6.2 ^cd % | 17.4 ± 6.2 ^de % | 12.5 ± 7.8 ^d % | 29.6 ± 5.7 ^d % | 33.4 ± 4.1 ^d % |  |  |  |  | 4
